Laboratory results from ChEMBL document CHEMBL1759879, “A new quinoline derivative with cytotoxic activity from Streptomyces sp. neau50” (Bioorg Med Chem Lett, 2011).
Values after ≈ are worked out from the molar mass of the structure shown. Active and inactive are the calls of the source. The rule behind the calls is not given here.

Columns and labels:
A549 = assay: Cytotoxicity against human A549 cells after 72 hrs colorimetric assay; assay type: functional, cell-based; conditions: A549, 72 h
[1] = tested on: Staphylococcus epidermidis; assay: Antimicrobial activity against Staphylococcus epidermidis at 10 uM by agar diffusion method; assay type: functional, organism-based
Candida albicans = assay: Antimicrobial activity against Candida albicans at 10 uM by agar diffusion method; assay type: functional, organism-based

COC(=O)c1cc(C)nc2c(CCC(C)(C)OC)cccc12
IC50 (A549): 29.3 µg/mL (≈ 97.2 µM) | Activity [1]: inactive | Activity (Candida albicans): inactive
